Legend:
[1] = biological target: Serine/threonine-protein kinase pim-2 (Homo sapiens, UniProt Q9P1W9); assay: Kinase Inhibition Assay; conditions: pH 7.5; 25 °C
Method: (§1) Phosphorylation reactions were monitored using a coupled-enzyme assay in which ADP production was coupled to NADH oxidation by pyruvate kinase and lactate dehydrogenase. The assay was carried out in a buffer containing phosphoenolpyruvate, NADH, pyruvate kinase, lactate dehydrogenase, and PIM kinase. The reaction was monitored at 340 nm at 25 deg C on a Spectramax spectrophotometer (Molecular Devices) and started by addition ATP after a 10-min preincubation at 25 deg C. A recognition peptide of the PIM1 substrate p21 ([…]) was used. DMSO-dissolved inhibitors were added at the preincubation period resulting in a 2% final DMSO. Kinetic analysis was done by nonlinear regression fitting using the program KaleidaGraph (Synergy Software).

[2] = biological target: Serine/threonine-protein kinase pim-1 (Homo sapiens, UniProt P11309); assay: Kinase Inhibition Assay; conditions: pH 7.5; 25 °C
Sequence of Serine/threonine-protein kinase pim-1 (P11309 whole entry): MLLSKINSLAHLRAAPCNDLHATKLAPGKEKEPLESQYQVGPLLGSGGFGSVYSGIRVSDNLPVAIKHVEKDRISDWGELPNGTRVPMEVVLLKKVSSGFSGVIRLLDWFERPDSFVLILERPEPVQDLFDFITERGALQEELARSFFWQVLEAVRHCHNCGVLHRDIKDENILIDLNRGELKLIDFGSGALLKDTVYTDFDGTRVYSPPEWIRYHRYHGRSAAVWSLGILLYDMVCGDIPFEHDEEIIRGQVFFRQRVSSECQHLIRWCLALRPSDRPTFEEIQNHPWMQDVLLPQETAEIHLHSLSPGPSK
Method: as §1

Sequence of Serine/threonine-protein kinase pim-2 (Q9P1W9 whole entry): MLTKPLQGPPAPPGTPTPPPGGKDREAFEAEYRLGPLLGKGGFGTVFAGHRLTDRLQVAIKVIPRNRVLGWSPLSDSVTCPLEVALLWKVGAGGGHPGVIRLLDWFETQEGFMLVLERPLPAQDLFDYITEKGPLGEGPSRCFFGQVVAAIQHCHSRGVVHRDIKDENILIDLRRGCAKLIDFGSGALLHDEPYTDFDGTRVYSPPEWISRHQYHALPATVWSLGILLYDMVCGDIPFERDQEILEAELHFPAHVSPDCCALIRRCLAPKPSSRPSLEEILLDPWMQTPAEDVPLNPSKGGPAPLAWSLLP

**Q.** How did the IC50 [1] turn out when `CC(=O)c1cccc(-c2cnc3ccc(NCC4CC4)nn23)c1` [1-(3-{6-[(cyclopropylmethyl)amino]imidazo[1,2-a]pyridazin-3-yl}phenyl)ethan-1-one] was run?
**A.** The IC50 was 1800 nM.

**Q.** For `Clc1cccc(-c2cnc3ccc(NC4CCOCC4)nn23)c1` [K00152], which IC50 [2] is on record?
**A.** The IC50 was 50 nM.

**Q.** And the IC50 [1]?
**A.** The IC50 was 7100 nM.

**Q.** `CCC(CO)Nc1ccc2ncc(-c3ccc(F)c(Cl)c3)n2n1` (stereo not given) [K00486] was tested. Which IC50 [2] did it give?
**A.** The IC50 was 40 nM.

**Q.** And the IC50 [1]?
**A.** Its IC50 is 2500 nM.

From BindingDB's records for doi:10.1158/0008-5472.CAN-07-0320 (University Hospital Basel, 2007)
